Results reported in patent publication EP1243268A1, “MEDICINAL COMPOSITION” (Nippon Shinyaku Co., Ltd., priority 1999, dated 2001).

Assays:
[1] = system: mice; assay: Acute toxicity; assay type: in vivo; conditions: suspension orally at 300 mg/kg, general condition observed for a week after administration
Method: Each of the compounds in Preparation Examples 1, 5, 6, 33, 34, 39, and 48 was administered.

[2] = system: mesangial cells; assay: Effect on anti-Thy-1 antibody nephritis in rats (count of cells in the glomeruli); assay type: in vivo; conditions: rats with anti-Thy-1 antibody nephritis; suspension (1mg/1ml) orally, 1 ml/100g of body weight twice a day for 7 days; kidneys removed on day 8; number of cells per glomerulus, mean ± standard error; Control 104.3±3.3, intact animal 67.25; *: P<0.05, **: P<0.01 (Dunnett's test)
Excerpt: Anti-Thy-1 antibody-induced nephritis is a model of glomerulonephritis constructed by utilizing the reaction between the Thy-1 antigen occurring as a membrane protein of mesangial cells and the antibody to the antigen. In this model, injuries to mesangial cells and lesions associated with mesangial cell proliferation are found. While a large majority of types of chronic glomerulonephritis in human are those of proliferative glomerulonephritis which show mesangial cell proliferation and increases in mesangial matrix as cardinal pathologic features, anti-Thy-1 antibody nephritis is regarded as a model of this human proliferative glomerulonephritis, particularly mesangial proliferative nephritis [Ishizaki et al., Acta. Pathol. Jpn., 36, 1191 (1986)].
Rats were used in groups of 7.
Preparation of the antibody was carried out in accordance with the method of Ishizaki et al. referred to above. Thus, an adjuvant suspension of rat thymocytes was prepared and subcutaneously administered to rabbits for immunization. After two booster doses, the blood was collected and the serum separated was subjected to inactivation and absorption to provide an antiserum (anti-Thy-1 antibody).
A predetermined amount of the antiserum was injected intravenously from the tail vein of rats to induce nephritis. Starting the following day after injection, a suspension (1mg/1ml) of the test drug was administered orally at a dosage of 1 ml/100g of body weight of rat twice a day for 7 days. On day 8 following the beginning of administration, the animals were sacrificed and the kidneys were removed. The kidney was fixed in Carnoy's fixative and, in the routine manner, paraffin sections were prepared and stained with hematoxyline stain for microscopy. For histopathological evaluation, the number of cells in the glomeruli (mainly mesangial cells) in each tissue preparation was counted under a light microscope. Statistical analysis was performed by Dunnett's test.

SMILES | deaths [1] | Number of mesangial cells a) [2]
Cc1cc2c(C(=O)N3CCN(c4ccncc4)CC3)c(-c3ccccc3)n(C)c2cc1C.Cl [Preparation Example 39, 1-(1,5,6-Trimethyl-2-phenylindol-3-ylcarbonyl)-4-(4-pyridyl)piperazine hydrochloride] | No deaths were observed | 
Cn1c(-c2ccccc2)c(C(=O)N2CC[N+]([O-])(c3ccccn3)CC2)c2ccccc21 [Preparation Example 5, 1-(1-Methyl-2-phenylindol-3-ylcarbonyl)-4-(2-pyridyl)piperazine-4-oxide] | No deaths were observed | 
Cc1ccc2c(c1)c(C(=O)N1CCN(c3ccncc3)CC1)c(-c1ccccc1)n2C.Cl [Preparation Example 34, 1-(1,5-Dimethyl-2-phenylindol-3-ylcarbonyl)-4-(4-pyridyl)piperazine hydrochloride] | No deaths were observed | 87.1±5.7**
Cc1ccc2c(c1)c(C(=O)N1CCN(c3cccnc3)CC1)c(-c1ccccc1)n2C.Cl.Cl [Preparation Example 33, 1-(1,5-Dimethyl-2-phenylindol-3-ylcarbonyl)-4-(3-pyridyl)piperazine dihydrochloride] | No deaths were observed | 88.5±3.7**
Cl.Cn1c(-c2ccccc2)c(C(=O)N2CCN(c3ccc([N+](=O)[O-])cn3)CC2)c2ccccc21 [Preparation Example 48, 1-(1-Methyl-2-phenylindol-3-ylcarbonyl)-4-(5-nitro-2-pyridyl)piperazine hydrochloride] | No deaths were observed | 89.2±3.1*
Cc1ccc2c(c1)c(C(=O)N1CCN(c3ccccn3)CC1)c(-c1ccccc1)n2C.Cl [Preparation Example 1, 1-(1,5-Dimethyl-2-phenylindol-3-ylcarbonyl)-4-(2-pyridyl)piperazine hydrochloride] | No deaths were observed | 90.3±2.2*
Cl.Cn1c(-c2ccccc2)c(C(=O)N2CCN(c3ccccn3)CC2)c2ccccc21 [Preparation Example 6, 1-(1-Methyl-2-phenylindol-3-ylcarbonyl)-4-(2-pyridyl)piperazine hydrochloride] | No deaths were observed | 
